Test results published in patent US7179819B2, “VLA-4 inhibitor compounds” (Daiichi Pharmaceutical Co., Ltd., priority 1999, dated 2007).
Structures can show the parent of a compound that is named as a salt. Values belong to the compound of their own block, whether it stands above or below them.

Tests used:
eosinophil infiltration [1] = assay: Eosinophil accumulation model in the rat (Compound 48/80 injected into pleural cavities); format: in vivo, male Sprague Dawley rats; conditions: b.i.d. at 0 and 8 hours
Experimental: The compounds of the present invention may also be further characterized in other in vivo assays, such as the eosioophil accumulation model tested in the rat. Fifty μg of Compound 48/80 was injected into the pleural cavities of male Sprague Dawley rats. After 24 hrs, each cavity was washed twice with Hank's Balanced Salt Solution containing 0.2% EDTA. Total cell and eosinophil counts were determined. Test compounds were given intraveneously, orally or subcutaneously, b.i.d. at 0 and 8 hours.

[2] = Pharmacokinetic evaluation in mouse; format: in vivo; conditions: for AUC (total area under the plasma concentration versus time curve): LC/MS/MS; for clearance / MRT: plasma; for clearance: read-out: CL (apparent plasma clearance); for MRT: read-out: MRT (mean residence time)
[3] = Mouse bio-assay: serum concentration after oral dosing, determined by direct binding assay of diluted serum; conditions: 10 mg/kg; for concentration at 15 min: female, Balb/c, serum, po
Experimental: (§1) A compound was dissolved or suspended with an appropriate solvent at 1 mg/mL. Female Balb/c mice (7–9 weeks old) were given the compound orally. Blood samples were collected from the postcaval vein of the anesthetized mice after fifteen minutes. Serum was prepared and stored at −20° C. Serum concentration of the compound was determined from inhibitory activities of the diluted serum by a direct binding assay using VLA-4-expressing cells and VCAM-IgG fusion protein. Serum concentration determined by this method correlated well with the concentration determined by LC/MS/MS methodologies.

eosinophil infiltration [4] = assay: Murine model of Ascaris-induced bronchial inflammation: eosinophil infiltration into bronchoalveolar lavage fluid; format: in vivo; conditions: mouse
Experimental: The VLA-4 inhibitors may be further characterized in in vivo assays. One such assay examines the inhibition of eosinophil infiltration into the bronchoalveolar lavage fluid in the mouse (murine) model. In this assay, the animals are treated with cyclophosphamide on day 0. On days 2 and 14, the animals are immunized intraperitoneally with Ascaris suum extract. Seven days later, the animals are treated with various doses of the VLA-4 inhibitor. Shortly after drug administration, the animals are challenged with Ascaris suum extract by instillation into the trachea. Bronchoalveolar lavage of the animal is performed by instilling saline into the lung, 48 hours later. Total cell and eosinophil counts in the lavage are determined.

[5] = Pharmacokinetic evaluation in rat; format: in vivo; conditions: for AUC (total area under the plasma concentration versus time curve): LC/MS/MS; for clearance / MRT: plasma, 10 mg/kg; for clearance: read-out: CL (apparent plasma clearance); for MRT: read-out: MRT (mean residence time)
in vivo [6] = conditions: female, Balb/c, mouse, po, 10 mg/kg
Experimental: as §1

in vivo [7] = conditions: monkey, 2 mg/kg
[8] = Pharmacokinetic evaluation in monkey, single intravenous dosage; conditions: single intravenous dosage (2 mg/kg), LC/MS/MS
VLA-4-expressing cells = conditions: Wang et al. 1995; cited from earlier work
[9] = tested on: VLA-4-mediated lymphocyte adherence; conditions: Molossi et al. 1995; cited from earlier work
[10] = tested on: accelerated coronary arteriopathy; conditions: Molossi et al. 1995; cited from earlier work
[11] = iv, 10 mg/kg, 10 mg/kg (i.v.), line of AUC 0–6 hr
[12] = iv, 10 mg/kg, 10 mg/kg (i.v.), line of AUC 0–∞
[13] = 10 mg/kg (p.o.), line of AUC 0–6 hr
[14] = 10 mg/kg (p.o.), line of AUC 0–∞
[15] = iv, 10 mg/kg (i.v.), line of AUC 0–6 hr
[16] = iv, 10 mg/kg (i.v.), line of AUC 0–∞

AUC (total area under the plasma concentration versus time curve) ([2]; 10 mg/kg (i.v.), 0–6 hr): 5259 (0–6 hr) ng · h/mL
AUC (total area under the plasma concentration versus time curve) ([2]; 10 mg/kg (i.v.), 0–∞): 5389 (0–∞) ng · h/mL
AUC (total area under the plasma concentration versus time curve) ([2]; 20 mg/kg (p.o.), 0–6 hr): 2190 (0–6 hr) ng · h/mL
AUC (total area under the plasma concentration versus time curve) ([2]; 20 mg/kg (p.o.), 0–∞): 3615 (0–∞) ng · h/mL
CL (apparent plasma clearance) ([2]; 20 mg/kg (p.o.), line of AUC 0–6 hr): 152.24 mL/min/kg
CL (apparent plasma clearance) ([2]; 20 mg/kg (p.o.), line of AUC 0–∞): 92.21 mL/min/kg
clearance [2, 11]: 31.7 mL/min/kg
MRT [2, 11]: 0.4 h
clearance [2, 12]: 30.9 mL/min/kg
MRT [2, 12]: 0.6 h
MRT ([2]; po, 20 mg/kg, 20 mg/kg (p.o.), line of AUC 0–6 hr): 2.3 h
MRT ([2]; po, 20 mg/kg, 20 mg/kg (p.o.), line of AUC 0–∞): 6.5 h
concentration at 15 min [3]: 693 ng/mL
Compound: Cc1cc(CC(=O)N2C[C@@H](F)C[C@H]2COc2ccc(C(=O)O)cc2)ccc1NC(=O)Nc1ccccc1Br [Compound 80, 4-[1-[4-[N′-(2-bromophenyl)ureido]-3-methylphenylacetyl]-(4S)-fluoro-(2S)-pyrrolidinyl]methoxybenzoic acid]
% Inhibition of Eosinophil Infiltration (eosinophil infiltration [1]; 50 mg/kg 2 days, s.c.): 65.3%

Compound: Cc1ccccc1NC(=O)Nc1ccc(CC(=O)N2C[C@@H](F)C[C@H]2COc2ccc(C(=O)O)cc2)cc1Cl [Compound 90, 4-[1-[3-chloro-4-[N′-(2-methylphenyl)ureido]phenylacetyl]-(4S)-fluoro-(2S)-pyrrolidinyl]methoxybenzoic acid]
% Inhibition of Eosinophil Infiltration (eosinophil infiltration [4]; 10 mg/kg t.i.d. × 2 days, p.o.): 18.1%
% Inhibition of Eosinophil Infiltration (eosinophil infiltration [4]; 30 mg/kg b.i.d. × 2 days, i.v.): 47.3%
% Inhibition of Eosinophil Infiltration (eosinophil infiltration [4]; 30 mg/kg t.i.d. × 2 days, p.o.): 39.1%
% Inhibition of Eosinophil Infiltration (eosinophil infiltration [4]; 50 mg/kg t.i.d. × 2 days, p.o.): 45.9%
% Inhibition of Eosinophil Infiltration (eosinophil infiltration [1]; 3 mg/kg 2 days, i.v.): 25.4%
% Inhibition of Eosinophil Infiltration (eosinophil infiltration [1]; 10 mg/kg 2 days, i.v.): 46.7%
% Inhibition of Eosinophil Infiltration (eosinophil infiltration [1]; 30 mg/kg 2 days, i.v.): 83.7%
% Inhibition of Eosinophil Infiltration (eosinophil infiltration [1]; 50 mg/kg 2 days, p.o.): 50.5%
AUC (total area under the plasma concentration versus time curve) ([2]; 10 mg/kg (i.v.), 0–6 hr): 8995 (0–6 hr) ng · h/mL
AUC (total area under the plasma concentration versus time curve) ([2]; 10 mg/kg (i.v.), 0–∞): 9219 (0–∞) ng · h/mL
AUC (total area under the plasma concentration versus time curve) ([2]; 10 mg/kg (p.o.), 0–6 hr): 2540 (0–6 hr) ng · h/mL
AUC (total area under the plasma concentration versus time curve) ([2]; 10 mg/kg (p.o.), 0–∞): 2950 (0–∞) ng · h/mL
CL (apparent plasma clearance) [2, 13]: 65.62 mL/min/kg
CL (apparent plasma clearance) [2, 14]: 56.50 mL/min/kg
clearance [2, 11]: 18.5 mL/min/kg
MRT [2, 11]: 0.5 h
clearance [2, 12]: 18.1 mL/min/kg
MRT [2, 12]: 0.7 h
MRT ([2]; po, 10 mg/kg, 10 mg/kg (p.o.), line of AUC 0–6 hr): 1.2 h
MRT ([2]; po, 10 mg/kg, 10 mg/kg (p.o.), line of AUC 0–∞): 2.5 h
AUC (total area under the plasma concentration versus time curve) ([5]; 10 mg/kg (i.v.), 0–6 hr): 31915 (0–6 hr) ng · h/mL
AUC (total area under the plasma concentration versus time curve) ([5]; 10 mg/kg (i.v.), 0–∞): 33488 (0–∞) ng · h/mL
AUC (total area under the plasma concentration versus time curve) ([5]; 10 mg/kg (p.o.), 0–6 hr): 11454 (0–6 hr) ng · h/mL
AUC (total area under the plasma concentration versus time curve) ([5]; 10 mg/kg (p.o.), 0–∞): 19968 (0–∞) ng · h/mL
CL (apparent plasma clearance) [5, 13]: 17.85 mL/min/kg
CL (apparent plasma clearance) [5, 14]: 9.99 mL/min/kg
clearance [5, 15]: 5.23 mL/min/kg
MRT [5, 15]: 0.8 h
clearance [5, 16]: 4.98 mL/min/kg
MRT [5, 16]: 1.1 h
MRT ([5]; po, 10 mg/kg (p.o.), line of AUC 0–6 hr): 1.7 h
MRT ([5]; po, 10 mg/kg (p.o.), line of AUC 0–∞): 8.8 h
Serum Concentration ([3]; oral, 15 minutes post-administration): 3659 ng/mL

concentration at 15 min [3]: 2160 ng/mL
Compound: O=C(Nc1ccc(CC(=O)N2C[C@@H](F)C[C@H]2COc2ccc(C(=O)O)cc2)cc1Cl)Nc1ccccc1Br [Compound 92, 4-[1-[4-[N′-(2-bromophenyl)ureido]-3-chlorophenylacetyl]-(4S)-fluoro-(2S)-pyrrolidinyl]methoxybenzoic acid]
% Inhibition of Eosinophil Infiltration (eosinophil infiltration [1]; 50 mg/kg 2 days, s.c.): 43.1%

Compound: O=C(Nc1ccccc1Cl)Nc1ccc(CC(=O)N2C[C@@H](F)C[C@H]2COc2ccc(C(=O)O)cc2)cc1Br [Compound 95, 4-[1-[3-bromo-4-[N′-(2-chlorophenyl)ureido]phenylacetyl]-(4S)-fluoro-(2S)-pyrrolindinyl]methoxybenzoic acid]
% Inhibition of Eosinophil Infiltration (eosinophil infiltration [1]; 50 mg/kg 2 days, s.c.): 40.9%

Compound: COC(=O)c1ccc(OC[C@@H]2C[C@@H](N(C)C)CN2C(=O)Cc2ccc(NC(=O)Nc3ccccc3C)c(OC)c2)cc1 [Compound 156, methyl 4-[trans-4-dimethylamino-1-[3-methoxy-4-[N′-(2-methylphenyl)ureido]phenylacetyl]-(2S)-pyrrolidinyl]methoxybenzoate HCl salt]
concentration at 15 min (in vivo [6]): 285 ng/mL

clearance (in vivo [7]; plasma, iv): 4 mL/min/kg
concentration at 5 min (in vivo [7]; serum, intravenous): 65400 ng/mL
concentration at 30 min (in vivo [7]; serum, intravenous): 3900 ng/mL
concentration at 1 hr (in vivo [7]; serum, intravenous): 2220 ng/mL
concentration at 2 hr (in vivo [7]; serum, intravenous): 772 ng/mL
concentration at 4 hr (in vivo [7]; serum, intravenous): 194 ng/mL
concentration at 8 hr (in vivo [7]; serum, intravenous): 28 ng/mL
AUC (total area under the plasma concentration versus time curve) [8]: 8405 ng·h/mL
Compound: COc1cc(CC(=O)N2CC(O)C(O)C2C(=O)N2CCN(CC(=O)O)CC2)ccc1NC(=O)Nc1ccccc1C (centres unmarked) [Compound 195]

Compound: CQIDSPC [Synthetic VCAM-1 peptide]
adhesion of VLA-4-expressing cells to purified VCAM-1 (VLA-4-expressing cells): inhibit the adhesion

Compound: phenylacetic acid-Leu-Asp-Phe-d-Pro-amide
VLA-4-mediated lymphocyte adherence in vitro [9]: inhibited
accelerated coronary arteriopathy in rabbit cardiac allografts [10]: reduced
